Patent US6869949B2, “Polysubstituted imidazopyridines as gastric secretion inhibitors” (Altana Pharma AG, priority 2000, dated 2005)

Test system: acid secretion stimulated by pentagastrin of the perfused rat stomach
Assay: Testing of the secretion-inhibiting action on the perfused rat stomach
Conditions: dose 3 μmol/kg i.d., anesthetized CD rats, perfused stomach in vivo
Description: The abdomen of anesthetized rats (CD rats, female, 200-250 g; 1.5 g/kg i.m. urethane) was opened after tracheotomy by means of a median upper abdominal incision and a PVC catheter was fixed transorally in the esophagus and a further catheter via the pylorus such that the ends of the tubing just projected into the gastric lumen. The catheter leading from the pylorus led outwards through a side opening in the right abdominal wall.
After thorough rinsing (about 50-100 ml), warm physiological NaCl solution at 37° C. was continuously passed through the stomach (0.5 ml/min, pH 6.8-6.9; Braun-Unita I). The pH (pH meter 632, glass electrode EA 147; φ=5 mm, Metrohm), and, by titration with a freshly prepared 0.01 N NaOH solution to pH 7 (Dosimat 665 Metrohm), the secreted HCl were determined in the effluent in each case collected at an interval of 15 minutes.
The gastric secretion was stimulated by continuous perfusion of 1 μg/kg (=1.65 ml/h) of i.v. pentagastrin (left femoral vein) about 30 min after the end of the operation (i.e. alter determination of 2 preliminary fractions). The substances to be tested were administered intraduodenally in 2,5 ml/kg of liquid volume 60 min after the start of the pentagastrin continuous infusion.
The body temperature of the animals was kept at a constant 37.8-38° C. by infrared irradiation and heat pads (automatic, stepless control by means of rectal temperature sensors).

SMILES	Inhibition of acid secretion (%)
COCCOCCO[C@@H]1c2ccn3c(C)c(C)nc3c2N[C@H](c2ccccc2)[C@H]1O [Example 8, (7R,8R,9R)-8-Hydroxy-7-[2-(2-methoxyethoxy)ethoxy]-2,3-dimethyl-9-phenyl-7,8,9,10-tetrahydroimidazo[1,2-h][1,7]naphthyridine]	100
COCCOCCO[C@H]1c2ccn3c(C)c(C)nc3c2N[C@H](c2ccccc2)[C@H]1O [Example 9, (7S,8R,9R)-8-Hydroxy-7-[2-(2-methoxyethoxy)ethoxy]2,3-dimethyl-9-phenyl-7,8,9,10-tetrahydroimidazo[1,2-h][1,7]naphthyridine]	100
Cc1cn2ccc3c(c2n1)N[C@H](c1ccccc1)[C@@H](O)[C@@H]3O [Example 11, (7R,8R,9R)-7,8-Dihydroxy-2-methyl-9-phenyl-7,8,9,10-tetrahydroimidazo[1,2-h][1,7]naphthyridine]	100
COCCO[C@H]1c2ccn3cc(C)nc3c2N[C@H](c2ccccc2)[C@H]1O [Example 12a, (7S,8R,9R)-8-hydroxy-2-methyl-7-(2-methoxyethoxy)-9-phenyl-7,8,9,10-tetrahydroimidazo[1,2-h][1,7]naphthyridine]	100
COCCO[C@@H]1c2ccn3cc(C)nc3c2N[C@H](c2ccccc2)[C@H]1O [Example 12b, (7R,8R,9R)-8-hydroxy-2-methyl-7-(2-methoxyethoxy)-9-phenyl-7,8,9,10-tetrahydroimidazo[1,2-h][1,7]-naphthyridine]	100
COCCO[C@@H]1c2ccn3c(Br)c(C)nc3c2N[C@H](c2ccccc2)[C@H]1O [Example 13, (7R,8R,9R)-3-Bromo-8-hydroxy-7-(2-methoxyethoxy)-2-methyl-9-phenyl-7,8,9,10-tetrahydroimidazo[1,2-h][1,7]naphthyridine]	100
COCCO[C@@H]1c2ccn3c(Cl)c(C)nc3c2N[C@H](c2ccccc2)[C@H]1O [Example 14, (7R,8R,9R)-3-Chloro-8-hydroxy-7-(2-methoxyethoxy)-2-methyl-9-phenyl-7,8,9,10-tetrahydroimidazo[1,2-h][1,7]naphthyridine]	100
COCCO[C@@H]1c2ccn3c(Cl)c(C)nc3c2O[C@H](c2ccccc2)[C@@H]1O [Example 16, (7R,8R,9R)-3-Chloro-8-hydroxy-7-(2-methoxyethoxy)-2-methyl-9-phenyl-7H-8,9-dihydro-pyrano[2,3-c]imidazo[1,2-a]pyridine]	100
COCCO[C@@H]1c2ccn3cc(C)nc3c2O[C@H](c2ccccc2)[C@@H]1O [Example 17, (7R,8R,9R)-8-Hydroxy-7-(2-methoxyethoxy)-2-methyl-9-phenyl-7H-8,9-dihydro-pyrano[2,3-c]imidazo[1,2-a]pyridine]	100
Cc1cn2ccc3c(c2n1)O[C@H](c1ccccc1)[C@H](O)[C@@H]3O [Example 18, (7R,8R,9R)-7,8-Dihydroxy-2-methyl-9-phenyl-7H-8,9-dihydropyrano[2,3-c]imidazo[1,2-a]pyridine]	100
CO[C@@H]1c2ccn3cc(C)nc3c2N[C@H](c2ccccc2)[C@H]1O [Example 20, (7R,8R,9R)-8-Hydroxy-7-methoxy-2-methyl-9-phenyl-7,8,9,10-tetrahydroimidazo[1,2-h][1,7]naphthyridine]	100
CO[C@H]1c2ccn3cc(C)nc3c2N[C@H](c2ccccc2)[C@H]1O [Example 21, (7S,8R,9R)-8-Hydroxy-7-methoxy-2-methyl-9-phenyl-7,8,9,10-tetrahydroimidazo[1,2-h][1,7]naphthyridine]	100
COCCO[C@@H]1c2ccn3c(CO)c(C)nc3c2N[C@H](c2ccccc2)[C@H]1O [Example 22, (7R,8R,9R)-3-Hydroxymethyl-8-hydroxy-7-(2-methoxyethoxy)-2-methyl-9-phenyl-7,8,9,10-tetrahydroimidazo[1,2-h][1,7]naphthyridine]	100

Test system: not given
Assay: not given
Conditions: not given

SMILES	melting point
Cc1nc2c3c(ccn2c1C)C(=O)C(O)C(c1ccsc1)N3 (centres unmarked) [Example 1, 8-Hydroxy-2,3-dimethyl-9-(3-thienyl)-7,8,9,10-tetrahydroimidazo[1,2-h][1,7]naphthyridin-7-one]	222 to 225 °C
Cc1nc2c3c(ccn2c1C)C(O)C(O)C(c1ccsc1)N3 (centres unmarked) [Example 2, 7,8-Dihydroxy-2,3-dimethyl-9-(3-thienyl)-7,8,9,10-tetrahydroimidazo[1,2-h][1,7]naphthyridine]	134 to 138 °C
Cc1nc2c3c(ccn2c1C)C(=O)CC(c1ccsc1)N3 (centres unmarked) [Example 3, 2,3-Dimethyl-9-(3-thienyl)-7,8,9,10-tetrahydroimidazo[1,2-h][1,7]naphthyridin-7-one]	176 to 177 °C
Cc1nc2c3c(ccn2c1C)C(O)CC(c1ccsc1)N3 (centres unmarked) [Example 4, 7-Hydroxy-2,3-dimethyl-9-(3-thienyl)-7,8,9,10-tetrahydroimidazo[1,2-h][1,7]naphthyridine]	192 to 194 °C
Cc1nc2c3c(ccn2c1C)C(O)CC(c1ccoc1)N3 (centres unmarked) [Example 7, 9-(3-Furyl)-7-hydroxy-2,3-dimethyl-7,8,9,10-tetrahydroimidazo[1,2-h][1,7]naphthyridine]	221 to 222 °C
Cc1cn2ccc3c(c2n1)N[C@H](c1ccccc1)[C@@H](O)[C@@H]3O [Example 11, (7R,8R,9R)-7,8-Dihydroxy-2-methyl-9-phenyl-7,8,9,10-tetrahydroimidazo[1,2-h][1,7]naphthyridine]	119 °C (dec.)
COCCO[C@@H]1c2ccn3c(Br)c(C)nc3c2N[C@H](c2ccccc2)[C@H]1O [Example 13, (7R,8R,9R)-3-Bromo-8-hydroxy-7-(2-methoxyethoxy)-2-methyl-9-phenyl-7,8,9,10-tetrahydroimidazo[1,2-h][1,7]naphthyridine]	153 to 154 °C
COCCO[C@@H]1c2ccn3c(Cl)c(C)nc3c2N[C@H](c2ccccc2)[C@H]1O [Example 14, (7R,8R,9R)-3-Chloro-8-hydroxy-7-(2-methoxyethoxy)-2-methyl-9-phenyl-7,8,9,10-tetrahydroimidazo[1,2-h][1,7]naphthyridine]	123 to 126 °C
COCCO[C@@H]1c2ccn3c(CO)c(C)nc3c2N[C@H](c2ccccc2)[C@H]1O [Example 22, (7R,8R,9R)-3-Hydroxymethyl-8-hydroxy-7-(2-methoxyethoxy)-2-methyl-9-phenyl-7,8,9,10-tetrahydroimidazo[1,2-h][1,7]naphthyridine]	180 to 183 °C
COCCO[C@@H]1c2ccn3c(-c4ccccc4)c(C)nc3c2N[C@H](c2ccccc2)[C@H]1O [Example 25, (7R,8R,9R)-3,9-Diphenyl-8-hydroxy-7-(2-methoxyethoxy)-2-methyl-7,8,9,10-tetrahydroimidazo[1,2-h][1,7]naphthyridine]	190 to 192 °C
COCc1nc2c3c(ccn2c1C)C(=O)[C@H](O)[C@@H](c1ccccc1)N3 [Example 26, (8R,9R)-8-Hydroxy-2-methoxymethyl-3-methyl-9-phenyl-7,8,9,10-tetrahydroimidazo[1,2-h][1,7]naphthyridin-7-one]	168 to 173 °C
COCc1nc2c3c(ccn2c1C)[C@@H](O)[C@H](O)[C@@H](c1ccccc1)N3 [Example 27, (7R,8R,9R)-7,8-Dihydroxy-2-methoxymethyl-3-methyl-9-phenyl-7,8,9,10-tetrahydroimidazo[1,2-h][1,7]naphthyridine]	102 to 104 °C
COCCO[C@H]1c2ccn3c(C)c(COC)nc3c2N[C@H](c2ccccc2)[C@H]1O [Example 28a, (7S,8R,9R)-8-hydroxy-7-(2-methoxyethoxy)-2-methoxymethyl-3-methyl-9-phenyl-7,8,9,10-tetrahydroimidazo[1,2-h][1,7]naphthyridine]	63 to 65 °C
